PubChem BioAssay AID1259407 (Chemical Carcinogenesis Research Information System (CCRIS), 2018)
Active and inactive are the calls of the source. How the calls were made is not given here.

Test system: CCRIS mutagenicity, Ames/micronucleus/aberration tests
Experiment: CCRIS mutagenicity studies

O=C(O)CN(CC(=O)O)CC(=O)O
mutagenic call (Test System: AMES SALMONELLA TYPHIMURIUM, Strain/Indicator: TA1535, Metabolic Activation: NONE, Method: STANDARD PLATE): inactive; negative | mutagenic call (Test System: AMES SALMONELLA TYPHIMURIUM, Strain/Indicator: TA1535, Metabolic Activation: NONE, Method: SUSPENSION/PLATE): inactive; negative | mutagenic call (Test System: AMES SALMONELLA TYPHIMURIUM, Strain/Indicator: TA1535, Metabolic Activation: RAT, LIVER, S-9, AROCLOR 1254 (10 OR 30%), Method: PREINCUBATION): inactive; negative | mutagenic call (Test System: AMES SALMONELLA TYPHIMURIUM, Strain/Indicator: TA1535, Metabolic Activation: RAT, LIVER, S-9, AROCLOR 1254, Method: STANDARD PLATE): inactive; negative | mutagenic call (Test System: AMES SALMONELLA TYPHIMURIUM, Strain/Indicator: TA1535, Metabolic Activation: RAT, LIVER, S-9, Method: STANDARD PLATE): inactive; negative | mutagenic call (Test System: AMES SALMONELLA TYPHIMURIUM, Strain/Indicator: TA1537, Metabolic Activation: HAMSTER, LIVER, S-9, AROCLOR 1254 (10 OR 30%), Method: PREINCUBATION): inactive; negative | mutagenic call (Test System: AMES SALMONELLA TYPHIMURIUM, Strain/Indicator: TA1537, Metabolic Activation: HAMSTER, LIVER, S-9, AROCLOR 1254, Method: STANDARD PLATE): inactive; negative | mutagenic call (Test System: AMES SALMONELLA TYPHIMURIUM, Strain/Indicator: TA1537, Metabolic Activation: HAMSTER, LIVER, S-9, Method: STANDARD PLATE): inactive; negative | mutagenic call (Test System: AMES SALMONELLA TYPHIMURIUM, Strain/Indicator: TA1537, Metabolic Activation: MOUSE, LIVER, S-9, AROCLOR 1254, Method: STANDARD PLATE): inactive; negative | mutagenic call (Test System: AMES SALMONELLA TYPHIMURIUM, Strain/Indicator: TA1537, Metabolic Activation: MOUSE, LIVER, S-9, Method: STANDARD PLATE): inactive; negative | mutagenic call (Test System: AMES SALMONELLA TYPHIMURIUM, Strain/Indicator: TA1537, Metabolic Activation: NONE, Method: PREINCUBATION): inactive; negative | mutagenic call (Test System: AMES SALMONELLA TYPHIMURIUM, Strain/Indicator: TA1537, Metabolic Activation: NONE, Method: STANDARD PLATE): inactive; negative | mutagenic call (Test System: AMES SALMONELLA TYPHIMURIUM, Strain/Indicator: TA1537, Metabolic Activation: NONE, Method: SUSPENSION/PLATE): inactive; negative | mutagenic call (Test System: AMES SALMONELLA TYPHIMURIUM, Strain/Indicator: TA1537, Metabolic Activation: RAT, LIVER, S-9, AROCLOR 1254 (10 OR 30%), Method: PREINCUBATION): inactive; negative | mutagenic call (Test System: AMES SALMONELLA TYPHIMURIUM, Strain/Indicator: TA1537, Metabolic Activation: RAT, LIVER, S-9, AROCLOR 1254, Method: STANDARD PLATE): inactive; negative | mutagenic call (Test System: AMES SALMONELLA TYPHIMURIUM, Strain/Indicator: TA1537, Metabolic Activation: RAT, LIVER, S-9, Method: STANDARD PLATE): inactive; negative | mutagenic call (Test System: AMES SALMONELLA TYPHIMURIUM, Strain/Indicator: TA1538, Metabolic Activation: HAMSTER, LIVER, S-9, AROCLOR 1254, Method: STANDARD PLATE): inactive; negative | mutagenic call (Test System: AMES SALMONELLA TYPHIMURIUM, Strain/Indicator: TA1538, Metabolic Activation: HAMSTER, LIVER, S-9, Method: STANDARD PLATE): inactive; negative | mutagenic call (Test System: AMES SALMONELLA TYPHIMURIUM, Strain/Indicator: TA1538, Metabolic Activation: MOUSE, LIVER, S-9, AROCLOR 1254, Method: STANDARD PLATE): inactive; negative | mutagenic call (Test System: AMES SALMONELLA TYPHIMURIUM, Strain/Indicator: TA1538, Metabolic Activation: MOUSE, LIVER, S-9, Method: STANDARD PLATE): inactive; negative | mutagenic call (Test System: AMES SALMONELLA TYPHIMURIUM, Strain/Indicator: TA1538, Metabolic Activation: NONE, Method: STANDARD PLATE): inactive; negative | mutagenic call (Test System: AMES SALMONELLA TYPHIMURIUM, Strain/Indicator: TA1538, Metabolic Activation: RAT, LIVER, S-9, AROCLOR 1254, Method: STANDARD PLATE): inactive; negative | mutagenic call (Test System: AMES SALMONELLA TYPHIMURIUM, Strain/Indicator: TA1538, Metabolic Activation: RAT, LIVER, S-9, Method: STANDARD PLATE): inactive; negative | mutagenic call (Test System: Ames Salmonella typhimurium, Strain/Indicator: TA98, Metabolic Activation: None, Method: Plate incorporation): inactive; negative | mutagenic call (Test System: Ames Salmonella typhimurium, Strain/Indicator: TA98, Metabolic Activation: Rat, Kidney, S9, Aroclor 1254 with NADP, Method: Preincubation): inactive; negative | mutagenic call (Test System: Ames Salmonella typhimurium, Strain/Indicator: TA98, Metabolic Activation: Rat, Kidney, S9, Aroclor 1254 with arachidonic acid instead of NADP, Method: Preincubation): inactive; negative | mutagenic call (Test System: Ames Salmonella typhimurium, Strain/Indicator: TA98, Metabolic Activation: Rat, Liver, S9, Aroclor 1254, Method: Preincubation): inactive; negative | mutagenic call (Test System: Ames Salmonella typhimurium, Strain/Indicator: TA100, Metabolic Activation: None, Method: Plate incorporation): inactive; negative | mutagenic call (Test System: Ames Salmonella typhimurium, Strain/Indicator: TA100, Metabolic Activation: Rat, Kidney, S9, Aroclor 1254 with NADP, Method: Preincubation): inactive; negative | mutagenic call (Test System: Ames Salmonella typhimurium, Strain/Indicator: TA100, Metabolic Activation: Rat, Kidney, S9, Aroclor 1254 with arachidonic acid instead of NADP, Method: Preincubation): inactive; negative | mutagenic call (Test System: Ames Salmonella typhimurium, Strain/Indicator: TA100, Metabolic Activation: Rat, Liver, S9, Aroclor 1254, Method: Preincubation): inactive; negative | mutagenic call (Test System: Ames Salmonella typhimurium, Strain/Indicator: TA102, Metabolic Activation: None, Method: Plate incorporation): inactive; negative. significant decrease at three highest doses. | mutagenic call (Test System: Ames Salmonella typhimurium, Strain/Indicator: TA102, Metabolic Activation: Rat, Kidney, S9, Aroclor 1254 with NADP, Method: Preincubation): inactive; negative | mutagenic call (Test System: Ames Salmonella typhimurium, Strain/Indicator: TA102, Metabolic Activation: Rat, Kidney, S9, Aroclor 1254 with arachidonic acid instead of NADP, Method: Preincubation): inactive; negative | mutagenic call (Test System: Ames Salmonella typhimurium, Strain/Indicator: TA102, Metabolic Activation: Rat, Liver, S9, Aroclor 1254, Method: Preincubation): inactive; negative | mutagenic call (Test System: Ames Salmonella typhimurium, Strain/Indicator: TA1537, Metabolic Activation: None, Method: Plate incorporation): inactive; negative | mutagenic call (Test System: Ames Salmonella typhimurium, Strain/Indicator: TA1537, Metabolic Activation: Rat, Kidney, S9, Aroclor 1254 with NADP, Method: Preincubation): inactive; negative | mutagenic call (Test System: Ames Salmonella typhimurium, Strain/Indicator: TA1537, Metabolic Activation: Rat, Kidney, S9, Aroclor 1254 with arachidonic acid instead of NADP, Method: Preincubation): inactive; negative | mutagenic call (Test System: Ames Salmonella typhimurium, Strain/Indicator: TA1537, Metabolic Activation: Rat, Liver, S9, Aroclor 1254, Method: Preincubation): inactive; negative | mutagenic call (Test System: E. COLI, Strain/Indicator: WP2 UVRA, Metabolic Activation: HAMSTER, LIVER, S-9, AROCLOR 1254, Method: STANDARD PLATE): inactive; negative | mutagenic call (Test System: E. COLI, Strain/Indicator: WP2 UVRA, Metabolic Activation: HAMSTER, LIVER, S-9, Method: STANDARD PLATE): inactive; negative | mutagenic call (Test System: E. COLI, Strain/Indicator: WP2 UVRA, Metabolic Activation: MOUSE, LIVER, S-9, AROCLOR 1254, Method: STANDARD PLATE): inactive; negative | mutagenic call (Test System: E. COLI, Strain/Indicator: WP2 UVRA, Metabolic Activation: MOUSE, LIVER, S-9, Method: STANDARD PLATE): inactive; negative | mutagenic call (Test System: E. COLI, Strain/Indicator: WP2 UVRA, Metabolic Activation: NONE, Method: STANDARD PLATE): inactive; negative | mutagenic call (Test System: E. COLI, Strain/Indicator: WP2 UVRA, Metabolic Activation: RAT, LIVER, S-9, AROCLOR 1254, Method: STANDARD PLATE): inactive; negative | mutagenic call (Test System: E. COLI, Strain/Indicator: WP2 UVRA, Metabolic Activation: RAT, LIVER, S-9, Method: STANDARD PLATE): inactive; negative | mutagenic call (Test System: MOUSE LYMPHOMA, Strain/Indicator: L5178Y (TK+/TK-), Metabolic Activation: NONE, Method: SUSPENSION/PLATE): inactive; negative | mutagenic call (Test System: MOUSE LYMPHOMA, Strain/Indicator: L5178Y (TK+/TK-), Metabolic Activation: RAT, LIVER, S-9, AROCLOR 1254, Method: SUSPENSION/PLATE): inactive; negative | mutagenic call (Test System: MOUSE LYMPHOMA, Strain/Indicator: L5178Y (TK+/TK-), Metabolic Activation: RAT, LIVER, S-9, Method: SUSPENSION/PLATE): inactive; negative | mutagenic call (Test System: Mouse lymphoma, Strain/Indicator: L5178Y (tk+/tk-), Metabolic Activation: None, Method: Microwell): active; positive. small colonies only.
